Data on three molecules can be found in patent US12421216B2, “Voruciclib polymorphs and methods of making and using thereof” (MEI PHARMA, INC., priority 2019, dated 2025).

Entries after “also recorded” stand apart in the source; their conditions may differ. Where a name gives a salt, the structure may show the parent alone. Read-outs that look alike come from different tables or passages of the source.

A short description of data set [1]: Quantitative solubility determination of voruciclib malonate after the thermocycling experiments (UPLC). The data set is classed as physicochemical. How it is done:
Moreover, after the thermocycling experiments, an aliquot of the mother liquor was taken and analyzed by UPLC to determine the API solubility. After that, the solutions were evaporated under vacuum (5 mbar) and the dry solids were analyzed by HT-XRPD. The solids were then exposed to accelerated aging conditions (2 days at 40° C./75% RH) followed by HT-XRPD re-analysis. Suspensions of amorphous voruciclib malonate salt were prepared in 24 solvents. After the temperature profile, an aliquot of mother liquor was taken, filtered and analyzed by UPLC to determine the API solubility. A small aliquot of mother liquor was taken and filtered using 0.2 μM PTFE syringe filters. The concentration of solute was determined by UPLC analysis. After that, the solutions were evaporated under vacuum (5 mbar) and the dry solids were analyzed by HT-XRPD. The solids were then exposed to accelerated aging conditions (2 days at 40° C./75% RH) followed by HT-XRPD re-analysis.

The conditions of data set [2]: dog, in vivo. The protocol: Each salt form was formulated into tablets with identical formulations. 9 dogs were divided into three group of 3 dogs/group. Each group received one of the following different pre-treatments: • 1. No pretreatment (natural gastric pH—could be acidic or alkaline) • 2. Famotidine (causes alkaline gastric pH) • 3. Pentagastrin (causes acidic gastric pH) The study used a crossover design. Each group of dogs first received pretreatment and was dosed with the Voruciclib HCl salt. After a washout period, the same group of dogs received the same pretreatment and was dosed with the Voruciclib malonate salt. The results were then analyzed for variability. […]
Clinical observations were recorded at least once daily, approximately 1 hour post-Voruciclib dose on dosing days. Body weight measurements were recorded for randomization, prior to dose administration (Day 1 and 8), and on the last day of the washout period following Phase 1 (Day 7). […]
Pharmacokinetic Analysis: Pharmacokinetic (PK) analyses were performed on the individual plasma concentration versus time data for Voruciclib using Phoenix WinNonlin non-compartmental analysis. To evaluate drug absorption, the PK parameter C max (maximum plasma concentration) was measured.
For each dog, the actual administered dose of voruciclib free base was calculated on a mg/kg basis, using the dog body weight data. […]

Data set [3] can be described thus: Physical stability of solid forms upon drying under vacuum, HT-XRPD. Format: physicochemical. As to conditions: for Physical stability upon drying under deep/high vacuum: oxalate, phosphate, malonate forms, 5 mbar, 18 h. The protocol: (§1) Amorphous voruciclib oxalate salt, generated by freeze-drying, was used to start the thermocycling experiments. Suspensions were prepared in the selected solvent systems at RT. Subsequently, the mixtures were subjected to a temperature profile. After the temperature profile, the solids were separated from the solutions by centrifugation and were dried at ambient conditions and under deep vacuum before being harvested and analyzed by HT-XRPD. The liquid phases were also dried under deep vacuum before being harvested and analyzed by HT-XRPD. All solids were exposed to AAC (40° C./75% RH, 2 days).
After the temperature profile, the solids were separated from the liquids by centrifugation and the solid phase was dried at ambient conditions and under deep vacuum (5 mbar) before being harvested and analyzed by HT-XRPD. The liquid phases were dried under deep vacuum (5 mbar) and the recovered solids were analyzed by HT-XRPD. All solids were then exposed to accelerated aging conditions (40° C./75% RH, 2 days) followed by HT-XRPD re-analysis.
as §1, with “voruciclib phosphate” for “voruciclib oxalate”, “profile. Upon completion of” for “profile. After”, “dried under” for “dried at”
After the temperature profile, the solids were separated from the liquids by centrifugation and the solid phase was dried under ambient conditions and under deep vacuum (5 mbar, 18 h) before being harvested and analyzed by HT-XRPD. The liquid phases were dried under deep vacuum (5 mbar, 18 h) and the recovered solids were analyzed by HT-XRPD. All solids were then exposed to accelerated aging conditions (40° C./75% RH, 2 days) followed by HT-XRPD re-analysis.
Amorphous voruciclib malonate salt, generated by freeze-drying, was used to start the thermocycling experiments. Suspensions were prepared in the selected solvent systems at RT and were subjected to three thermocycles between 50 and 5° C., followed by aging at 25° C. for 3 days. Upon completion of the aging time, the solids were separated from the liquids by centrifugation and they were dried at ambient conditions and under deep vacuum (5 mbar) before being harvested and analyzed by HT-XRPD.
After the temperature profile the solids were separated from the solution by centrifugation and they were dried at ambient conditions and under deep vacuum before being harvested and analyzed by HT-XRPD.

A short description of data set [4]: Physical stability upon exposure to accelerated aging conditions (AAC, 40° C./75% RH), re-analysis by HT-XRPD. Format: physicochemical. As to conditions: for Physical stability upon exposure to AAC: HT-XRPD before and after; for Stable during AAC: salt screen solids.

Broadly, the solubility is the concentration that dissolves in the medium under given conditions.

With `CN1CC[C@H](c2c(O)cc(O)c3c(=O)cc(-c4ccc(C(F)(F)F)cc4Cl)oc23)[C@H]1CO` (stereo in doubt) [voruciclib malonate, 2-(2-chloro-4-(trifluoromethyl)phenyl)-5,7-dihydroxy-8-((2S,3R)-2-(hydroxymethyl)-1-methylpyrrolidin-3-yl)-4H-chromen-4-one malonate salt], the solubility in data set [1] (1,2-dimethoxyethane, organic solvent or mixture, thermodynamic from solid, 1,2-Dimethoxyethane, read-out: Solubility) is 2.3 mg/mL; in data set [1] (1,4-dioxane, organic solvent or mixture, thermodynamic from solid, 1,4-Dioxane, read-out: Solubility), 0.9 mg/mL; in data set [1] (2-propanol, organic solvent or mixture, thermodynamic from solid, 2-Propanol, read-out: Solubility), 5.1 mg/mL; in data set [1] (2-propanol/water (90/10), organic solvent or mixture, thermodynamic from solid, 2-Propanol/water (90/10), read-out: Solubility) it was 130 mg/mL; in data set [1] (IPA, acetone, AcN, MEK and 1,2-dimethoxyethane, organic solvent or mixture, thermodynamic from solid, IPA, acetone, AcN, MEK and 1,2-dimethoxyethane, read-out: Solubility classification), 1 to 10 mg/mL; in data set [1] (THF, water and EtOH, water, thermodynamic from solid, THF, water and EtOH, read-out: Solubility classification), 10 to 33 mg/mL. The solubility is 5 mg/mL in data set [1] (acetone, organic solvent or mixture, thermodynamic from solid, Acetone, read-out: Solubility); 245 mg/mL in data set [1] (acetone/water (90/10), organic solvent or mixture, thermodynamic from solid, Acetone/water (90/10), read-out: Solubility); 100 to 1000 mg/mL in data set [1] (acetone/water (90/10, v/v) and IPA/water (90/10, v/v), organic solvent or mixture, thermodynamic from solid, acetone/water (90/10, v/v) and IPA/water (90/10, v/v), read-out: Solubility classification); 3 mg/mL in data set [1] (acetonitrile, organic solvent or mixture, thermodynamic from solid, Acetonitrile, read-out: Solubility); less than 0.04 mg/mL in data set [1] (anisole, organic solvent or mixture, thermodynamic from solid, Anisole, read-out: Solubility); 0.5 mg/mL in data set [1] (chloroform, organic solvent or mixture, thermodynamic from solid, Chloroform, read-out: Solubility). For the same molecule, the solubility is less than 0.07 mg/mL in data set [1] (cyclohexane, organic solvent or mixture, thermodynamic from solid, Cyclohexane, read-out: Solubility); 0.3 mg/mL in data set [1] (dichloromethane, organic solvent or mixture, thermodynamic from solid, Dichloromethane, read-out: Solubility); less than 0.04 mg/mL in data set [1] (diethyl ether, organic solvent or mixture, thermodynamic from solid, Diethyl ether, read-out: Solubility); 13.6 mg/mL in data set [1] (ethanol, organic solvent or mixture, thermodynamic from solid, Ethanol, read-out: Solubility); 0.3 mg/mL in data set [1] (ethyl acetate, organic solvent or mixture, thermodynamic from solid, Ethyl acetate, read-out: Solubility); 0.4 mg/mL in data set [1] (ethyl formate, organic solvent or mixture, thermodynamic from solid, Ethyl formate, read-out: Solubility). Further, the solubility was 0.1 mg/mL in data set [1] (isopropyl acetate, organic solvent or mixture, thermodynamic from solid, Isopropyl acetate, read-out: Solubility); 65.7 mg/mL in data set [1] (methanol, organic solvent or mixture, thermodynamic from solid, Methanol, read-out: Solubility); 33 to 100 mg/mL in data set [1] (methanol, organic solvent or mixture, thermodynamic from solid, methanol, read-out: Solubility classification); 2.9 mg/mL in data set [1] (methyl ethyl ketone, organic solvent or mixture, thermodynamic from solid, Methyl ethyl ketone, read-out: Solubility); less than 0.06 mg/mL in data set [1] (n-heptane, organic solvent or mixture, thermodynamic from solid, n-Heptane, read-out: Solubility); 0.1 to 1 mg/mL in data set [1] (organic solvent or mixture, thermodynamic from solid, 1,4-dioxane, chloroform, ethyl formate, DCM, ethyl acetate and isopropyl acetate, read-out: Solubility classification). Also, the solubility in data set [1] (organic solvent or mixture, thermodynamic from solid, toluene, anisole, MTBE, diethyl ether, pentane, cyclohexane and n-heptane, read-out: Solubility classification) is less than 0.1 mg/mL; in data set [1] (pentane, organic solvent or mixture, thermodynamic from solid, Pentane, read-out: Solubility), less than 0.05 mg/mL; in data set [1] (tert-butyl methyl ether, organic solvent or mixture, thermodynamic from solid, tert-Butyl methyl ether, read-out: Solubility), less than 0.04 mg/mL; in data set [1] (tetrahydrofuran, organic solvent or mixture, thermodynamic from solid, Tetrahydrofuran, read-out: Solubility), 14.2 mg/mL; in data set [1] (toluene, organic solvent or mixture, thermodynamic from solid, Toluene, read-out: Solubility) it was less than 0.04 mg/mL; in data set [1] (water, thermodynamic from solid, Water, read-out: Solubility) it was 13.6 mg/mL. In addition, the Variability of absorption result in data set [2] was “lower than the hydrochloride salt”.
Take `CN1CC[C@@H](c2c(O)cc(O)c3c(=O)cc(-c4ccc(C(F)(F)F)cc4Cl)oc23)[C@@H]1CO.O=C(O)CC(=O)O` [Mao1]: the “Physical stability upon drying under deep/high vacuum” value in data set [3] was “physically stable”. In data set [4] (40° C./75% RH, 2 days), the “Physical stability upon exposure to AAC” value is given as “physically stable upon exposure to AAC; also recorded: physically stable upon exposure to stress conditions” and the “Stable during AAC” value was “Yes”. Also, in data set [4] (malonate salt forms, exposure to AAC 40° C./75% RH, 2 days), the Physically stable is reported as “Yes”. For the same molecule, the “Solid forms: Ambient-dried solid (AAC)” value in data set [4] (malonate salt thermocycling experiments, label = form of the ambient-dried solid before AAC, 40° C./75% RH, 2 days, HT-XRPD) is “Mao1”. Further, the “Solid forms: Evap. ML (AAC)” value in data set [4] (malonate salt thermocycling experiments, label = form of the solid from the evaporated mother liquor before AAC, 40° C./75% RH, 2 days, HT-XRPD) is “Mao1”. In addition, in data set [4] (malonate salt thermocycling experiments, label = form of the vacuum-dried solid before AAC, 40° C./75% RH, 2 days, HT-XRPD), the “Solid forms: Vacuum-dried solids (AAC)” value is “Mao1”. The “Liquid phase AAC (XRPD form after accelerated aging)” value in data set [4] (solids from evaporated mother liquors of the salt screen, 40° C./75% RH for 2 days, HT-XRPD) is on record as “Mao1”.
Take `CN1CCC(c2c(O)cc(O)c3c(=O)cc(-c4ccc(C(F)(F)F)cc4Cl)oc23)C1CO.O=P(O)(O)O` (stereo not drawn) [Pho1]: the “Physical stability upon drying under deep/high vacuum” value in data set [3] is on record as “physically stable; also recorded: remained stable”. The Vacuum entry in data set [3] (phosphate salt cooling crystallization, form after drying under deep vacuum (5 mbar), label = ambient-dried form) was “Pho1”. Further, the “Solid forms Vacuum” value in data set [3] (phosphate salt thermocycling solids, form after drying under deep vacuum (5 mbar, 18 h), HT-XRPD, label = ambient-dried form) was “Pho1”. Besides, in data set [4] (40° C./75% RH, 2 days), the “Physical stability upon exposure to AAC” value is “the only stable from when exposed to advance aging conditions; also recorded: physically stable under AAC for 2 days; also recorded: physically stable upon exposure to AAC for two days; also recorded: remained stable” and the “Stable during AAC” value is reported as “Yes”. Also, the “Solid phase AAC (XRPD form after accelerated aging)” value in data set [4] (precipitated solids of the salt screen, dried under vacuum at 50° C., 40° C./75% RH for 2 days, HT-XRPD) is recorded as “Pho1”.
